Laboratory results taken from US20090085344A1, “Organic fluorescent sulfonyl ureido benzoxazinone pigments” (Honeywell International Inc., priority 2007, published 2009).

Tests used:
Format in all cases: physicochemical
[1] = Lightfastness: relative intensities at 0 hours and after 104 hours (FIGS. 1 and 2); conditions: compared with Lumilux CD 397 and Lumilux CD 302
Description: FIG. 1 is a comparative bar graph of the lightfastness of 1-(para-toluenesulfonyl)-3-[2-(4-oxo-4H-benzo[d]-[1,3]oxazine-2-yl)-phenyl]urea (compound 7), as compared with aliphatic ureidobenzoxazinone (UBO)(compound 11), Nitril-AUBO (compound 33), Lumiluxg CD 397, and Lumilux® CD 302, by measuring relative intensities at 0 hours and after 104 hours.
FIG. 2 is a comparative bar graph of the percent (%) loss of intensity of lightfastness of 1-(para-toluenesulfonyl)-3-[2-(4-oxo-4H-benzo[d]-[1,3]oxazine-2-yl)-phenyl]urea (compound 7) relative to compound 11, compound 33, Lumilux® CD 397, and Lumilux® CD 302.
Referring now to the Figures, FIG. 1 illustrates a comparative bar graph of the intensity of lightfastness (in cd/m^2) of 1-(para-toluenesulfonyl)-3-[2-(4-oxo-4H-benzo[d]-[1,3]oxazine-2-yl)-phenyl]urea (compound 7), which is shown relative to various ureido benzoxazinone compounds (UBO), such as aliphatic UBO (compound 11), Nitril-AUBO (compound 33), and Lumilux® CD 397 and Lumilux® CD 302.
FIG. 2 is a comparative bar graph illustrating of the percent loss of intensity of lightfastness of 1-(para-toluenesulfonyl)-3-[2-(4-oxo-4H-benzo[d]-[1,3]oxazine-2-yl)-phenyl]urea (compound 7) compared with ureido benzoxazinone compounds (UBO) such as compound 11, compound 33, Lumilux® CD 397 and Lumiluxg CD 302.

[2] = Intensity of fluorescence of the powder, Minolta luminance meter under 365 nm excitation
Description: (§1) In accordance with the present disclosure, 1-(para-toluenesulfonyl)-3-[2-(4-oxo-4H-benzo[d][1,3]oxazine-2-yl)-phenyl]urea, also named 1-(4-methylphenylsulfonyl)-3-[2-(4-oxo-4H-benzo[d][1,3]oxazine-2-yl)-phenyl]urea, where R^1, R^2, R^3 and R^4 are each hydrogen, and R^5 is 4-methylphenyl, was prepared according to the following procedure: A 250 mL three-neck bottle was charged at room temperature with anthranoylanthranilic acid (0.05 mol) and 100 mL methyl ethyl ketone. Para-toluenesulfonyl isocyanate (0.05 mol) was then added, with stirring, and the reaction mixture was heated under reflux at about 80° C. for about 4 hours. Thereafter, the resulting suspension was cooled to about 40° C., and acetic anhydride (40 mL) was added. The resulting mixture was heated for an additional 3 hours. After cooling to about 10° C., the precipitate was filtered under suction, washed with acetone, and dried at about 50° C. under atmospheric pressure to produce a white powder in about 70% -85% yield. The Emission (fluorescence) maximum of the resultant powder was 526 nm. The excitation maximum is/was 380 nm. […] Intensity of fluorescence of the powder was 350 cd/m^2, as measured with a Minolta luminance meter under 365 nm excitation. Solubility of the powder in 2-butanone was less than 0.5% at room temperature.

[3] = Fluorescence emission and excitation maxima of the powder
Text: The benzoxazinone compounds of the present disclosure are colorless, and fluoresce in the visible region. More specifically, the benzoxazinone compounds of the present disclosure produce a bright emission in a region from about 520 nm to about 540 nm wavelength when irradiated by UV light energy at about 366 nm wavelength. The benzoxazinone compounds have an excitation maximum at about 340 nm to about 420 nm wavelength.
as §1

[4] = Solubility of the powder in 2-butanone; conditions: room temperature
Description: as §1

| SMILES | degree (intensity) of lightfastness ([1]; 0 hours and after 104 hours) | loss of lightfastness intensity ([1]; after 104 hours) | Intensity of fluorescence of the powder [2] | Emission (fluorescence) maximum of the resultant powder [3] [nm] | excitation maximum [3] [nm] | Solubility of the powder in 2-butanone [4] |
| --- | --- | --- | --- | --- | --- | --- |
| Cc1ccc(S(=O)(=O)NC(=O)Nc2ccccc2-c2nc3ccccc3c(=O)o2)cc1 [Example 1, 1-(para-toluenesulfonyl)-3-[2-(4-oxo-4H-benzo[d]-[1,3]oxazine-2-yl)-phenyl]urea] | greater degree (intensity) of lightfastness | lower loss of lightfastness intensity | 350 cd/m^2 | 526 | 380 | less than 0.5% |
| O=C(Nc1ccccc1-c1nc2ccccc2c(=O)o1)NS(=O)(=O)c1ccccc1 [Example 2, 1-(phenylsulfonyl)-3-[2-(4-oxo-4H-benzo[d]-[1,3]oxazine-2-yl)-phenyl]urea] | – | – | 320 cd/m^2 | 528 | 380 | less than 0.5% |
| Cc1ccccc1S(=O)(=O)NC(=O)Nc1ccccc1-c1nc2ccccc2c(=O)o1 [Example 3, 1-(2-methylphenylsulfonyl)-3-[2-(4-oxo-4H-benzo[d]-[1,3]oxazine-2-yl)-phenyl]urea] | – | – | 260 cd/M^2 | 530 | 380 | less than 1% |
| O=C(Nc1ccccc1-c1nc2ccccc2c(=O)o1)NS(=O)(=O)c1ccc(Cl)cc1 [Example 4, 1-(4-chlorophenylsulfonyl)-3-[2-(4-oxo-4H-benzo[d]-[1,3]oxazine-2-yl)-phenyl]urea] | – | – | 330 cd/m^2 | 539 | 380 | less than 0.5% |
